This test deals with p53-MDM2 interaction (GST-MDM2 protein aa 23-117 / biotinylated p53 wt peptide) (Homo sapiens (Human), UniProt Q00987). In words: Mdm2-p53 Inhibition AlphaScreen. Type of test: binding. Particulars: GST-MDM2 (aa 23-117) / biotinylated p53 wt peptide. How it is done: Mdm2-p53 Inhibition AlphaScreen
15 μL of compound in 20% DMSO (serial pre-dilutions of compound are done in 100% DMSO) is pipetted to the wells of a white OptiPlate-96 (Perkin Elmer). A mix consisting of 20 nM GST-MDM2 protein (aa 23-117) and 20 nM biotinylated p53 wt peptide (encompassing aa 16-27 of wt human p53, amino acid sequence […]-Ttds-Lys-Biotin, molecular weight 2132.56 g/mol) is prepared in assay buffer (50 mM Tris/HCl pH 7.2; 120 mM NaCl; 0.1% bovine serum albumin (BSA); 5 mM dithiothreitol (DTT); 1 mM ethylenediaminetetraacetic acid (EDTA); 0.01% Tween 20). 30 μL of the mix is added to the compound dilutions and incubated for 15 min at rt while gently shaking the plate at 300 rounds per minute (rpm). Subsequently, 15 μL of premixed AlphaLISA Glutathione Acceptor Beads and AlphaScreen Streptavidin Donor Beads from PerkinElmer (in assay buffer at a concentration of 10 μg/mL each) are added and the samples are incubated for 30 min at rt in the dark (shaking 300 rpm). Afterwards, the signal is measured in a PerkinElmer Envision HIS Multilabel Reader using the AlphaScreen protocol from Perkin Elmer.
Each plate contains negative controls where biotinylated p53-peptide and GST-MDM2 are left out and replaced by assay buffer. Negative control values are entered as low basis value when using the software GraphPad Prism for calculations. Furthermore, a positive control (5% DMSO instead of test compound; with protein/peptide mix) is pipetted. Determination of IC50 values are carried out using GraphPad Prism 3.03 software (or updates thereof).

Chain of p53-MDM2 interaction (GST-MDM2 protein aa 23-117 / biotinylated p53 wt peptide) (Q00987 23-117): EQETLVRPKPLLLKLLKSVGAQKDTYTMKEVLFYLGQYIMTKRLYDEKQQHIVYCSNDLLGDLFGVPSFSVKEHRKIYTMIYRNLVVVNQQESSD

`COCCN1[C@H]2CCn3c(nc4cc(C(=O)O)ccc43)[C@H]2[C@H](c2cccc(Cl)c2F)[C@]12C(=O)Nc1cc(Cl)ccc12` [Ib-127]: the IC50 amounted to 11 nM.

`CC(C)OCCN1[C@H]2CCn3c(nc4cc(C(=O)O)ccc43)[C@H]2[C@H](c2cccc(Cl)c2F)[C@]12C(=O)Nc1cc(Cl)ccc12` [Ib-129]: the IC50 came out at 10 nM. Regarding `CC(C)(C)OCCN1[C@H]2CCn3c(nc4cc(C(=O)O)ccc43)[C@H]2[C@H](c2cccc(Cl)c2F)[C@]12C(=O)Nc1cc(Cl)ccc12` [Ib-131], the IC50 was found to be 22 nM. For `CS(=O)(=O)CCCN1[C@H]2CCn3c(nc4cc(C(=O)O)ccc43)[C@H]2[C@H](c2cccc(Cl)c2F)[C@]12C(=O)Nc1cc(Cl)ccc12` [Ib-133], the midpoint of inhibition, the IC50, lay at 58 nM.

The compound `O=C(O)c1ccc2c(c1)nc1n2CC[C@H]2[C@@H]1[C@H](c1cccc(Cl)c1F)[C@]1(C(=O)Nc3cc(Cl)ccc31)N2CC1CCCC1` [Ib-135] came in with an IC50 of 15 nM. The same measure for `O=C(O)c1ccc2c(c1)nc1n2CC[C@H]2[C@@H]1[C@H](c1cccc(Cl)c1F)[C@]1(C(=O)Nc3cc(Cl)ccc31)N2CC1CCCCC1` [Ib-137]: 34 nM; for `CCOc1cccc(CN2[C@H]3CCn4c(nc5cc(C(=O)O)ccc54)[C@H]3[C@H](c3cccc(Cl)c3F)[C@]23C(=O)Nc2cc(Cl)ccc23)c1` [Ib-139]: 4 nM.

As for `CCOc1cccc(CN2[C@H]3CCn4c(nc5cc(C(=O)O)ccc54)[C@H]3[C@H](c3cccc(Cl)c3F)[C@]23C(=O)Nc2cc(Cl)ccc23)c1` [Ib-140], the half-maximal inhibitory concentration (IC50) came out at 2 nM. The same measure for `CCOc1cccc(CN2[C@@H]3CCn4c(nc5cc(C(=O)O)ccc54)[C@@H]3[C@@H](c3cccc(Cl)c3F)[C@@]23C(=O)Nc2cc(Cl)ccc23)c1` [Ib-141]: 48 nM; for `COCc1cccc(CN2[C@H]3CCn4c(nc5cc(C(=O)O)ccc54)[C@H]3[C@H](c3cccc(Cl)c3F)[C@]23C(=O)Nc2cc(Cl)ccc23)c1` [Ib-142]: 3 nM. Compound `COc1cccc(CCN2[C@H]3CCn4c(nc5cc(C(=O)O)ccc54)[C@H]3[C@H](c3cccc(Cl)c3F)[C@]23C(=O)Nc2cc(Cl)ccc23)c1` [Ib-144] gave an IC50 of 8 nM. The result for `O=C(O)c1ccc2c(c1)nc1n2CC[C@H]2[C@@H]1[C@H](c1cccc(Cl)c1F)[C@]1(C(=O)Nc3cc(Cl)ccc31)N2CCC(F)(F)F` [Ib-146] reads 11 nM.

Compound `N#CC12CC(CN3[C@H]4CCn5c(nc6cc(C(=O)O)ccc65)[C@H]4[C@H](c4cccc(Cl)c4F)[C@]34C(=O)Nc3cc(Cl)ccc34)(C1)C2` [Ib-148] showed an IC50 of 21 nM.

The compound `CC(C)(C)CN1[C@H]2CCn3c(nc4cc(C(=O)O)ccc43)[C@H]2[C@H](c2cccc(Cl)c2F)[C@]12C(=O)Nc1cc(Cl)ccc12` [Ib-150] showed an IC50 of 20 nM.

In the case of `N#Cc1ccc2c(c1)NC(=O)[C@]21[C@@H](c2cccc(Cl)c2F)[C@@H]2c3nc4cc(C(=O)O)ccc4n3CC[C@@H]2N1CC1CC1` [Ib-152], half-maximal inhibition (IC50) was put at 7 nM. The same measure for `O=C(O)c1ccc2nc3n(c2c1)CC[C@H]1[C@@H]3[C@H](c2cccc(Cl)c2F)[C@]2(C(=O)Nc3cc(Cl)ccc32)N1CC1CC1` [Ib-154]: 3 nM; for `O=C(O)c1ccc2nc3n(c2c1)CC[C@H]1[C@@H]3[C@H](c2cccc(Cl)c2F)[C@]2(C(=O)Nc3cc(Cl)ccc32)N1CC1CC1` [Ib-155]: 2 nM.

The compound `O=C(O)c1cccc2nc3n(c12)CC[C@H]1[C@@H]3[C@H](c2cccc(Cl)c2F)[C@]2(C(=O)Nc3cc(Cl)ccc32)N1CC1CC1` [Ib-156] showed an IC50 of 5 nM.

Compound `COc1cc2c(cc1C(=O)O)nc1n2CC[C@H]2[C@@H]1[C@H](c1cccc(Cl)c1F)[C@]1(C(=O)Nc3cc(Cl)ccc31)N2CC1CC1` [Ib-157] returned a half-inhibitory concentration (IC50) of 2 nM. Compared with the last compound, the IC50 is about 2.5-fold lower. The result for `O=C(O)c1cc2nc3n(c2cc1OC(F)(F)F)CC[C@H]1[C@@H]3[C@H](c2cccc(Cl)c2F)[C@]2(C(=O)Nc3cc(Cl)ccc32)N1CC1CC1` [Ib-158] reads 3 nM. The same measure for `Cc1cc2c(cc1C(=O)O)nc1n2CC[C@H]2[C@@H]1[C@H](c1cccc(Cl)c1F)[C@]1(C(=O)Nc3cc(Cl)ccc31)N2CC1CC1` [Ib-159]: 7 nM; for `Cc1c(C(=O)O)ccc2c1nc1n2CC[C@H]2[C@@H]1[C@H](c1cccc(Cl)c1F)[C@]1(C(=O)Nc3cc(Cl)ccc31)N2CC1CC1` [Ib-160]: 4 nM; for `Cc1cc2c(nc3n2CC[C@H]2[C@@H]3[C@H](c3cccc(Cl)c3F)[C@]3(C(=O)Nc4cc(Cl)ccc43)N2CC2CC2)c(C)c1C(=O)O` [Ib-161]: 11 nM. The same measure for `CC(C)c1cc2c(cc1C(=O)O)nc1n2CC[C@H]2[C@@H]1[C@H](c1cccc(Cl)c1F)[C@]1(C(=O)Nc3cc(Cl)ccc31)N2CC1CC1` [Ib-162]: 6 nM; for `O=C(O)c1cc2nc3n(c2cc1F)CC[C@H]1[C@@H]3[C@H](c2cccc(Cl)c2F)[C@]2(C(=O)Nc3cc(Cl)ccc32)N1CC1CC1` [Ib-163]: 2 nM; for `O=C(O)c1cc2nc3n(c2cc1C(F)(F)F)CC[C@H]1[C@@H]3[C@H](c2cccc(Cl)c2F)[C@]2(C(=O)Nc3cc(Cl)ccc32)N1CC1CC1` [Ib-164]: 3 nM. `O=C(O)C1(c2ccc3c(c2)nc2n3CC[C@H]3[C@@H]2[C@H](c2cccc(Cl)c2F)[C@]2(C(=O)Nc4cc(Cl)ccc42)N3CC2CC2)CC1` [Ib-165] had an IC50 of 28 nM. The same measure for `CC(C)(C(=O)O)c1ccc2c(c1)nc1n2CC[C@H]2[C@@H]1[C@H](c1cccc(Cl)c1F)[C@]1(C(=O)Nc3cc(Cl)ccc31)N2CC1CC1` [Ib-167]: 22 nM; for `O=C(O)Cc1ccc2c(c1)nc1n2CC[C@H]2[C@@H]1[C@H](c1cccc(Cl)c1F)[C@]1(C(=O)Nc3cc(Cl)ccc31)N2CC1CC1` [Ib-169]: 7 nM. The same measure for `O=C(O)c1ccc2c(c1)nc1n2CC[C@H]2[C@@H]1[C@H](c1cccc(Cl)c1F)[C@]1(C(=O)Nc3nc(Cl)ccc31)N2CC1CC1` [Ib-171]: 10 nM; for `CCOc1cccc(CN2[C@H]3CCn4c(nc5cc(C(=O)O)ccc54)[C@H]3[C@H](c3cccc(Cl)c3F)[C@]23C(=O)Nc2nc(Cl)ccc23)c1` [Ib-173]: 7 nM.

`O=C(O)c1ccc2c(c1)nc1n2C[C@H]2[C@@H]1[C@H](c1cccc(Cl)c1F)[C@]1(C(=O)Nc3cc(Cl)ccc31)N2CC1CC1` [Ib-175] returned an IC50 of 3 nM. This IC50 lies about 2.3-fold lower than the previous one. The result for `O=C(O)c1ccc2c(c1)nc1n2C[C@H]2[C@@H]1[C@H](c1cccc(Cl)c1F)[C@]1(C(=O)Nc3cc(Cl)ccc31)N2CC1CC1` [Ib-176] reads 2 nM; that for `O=C(O)c1ccc2c(c1)nc1n2C[C@@H]2[C@H]1[C@@H](c1cccc(Cl)c1F)[C@@]1(C(=O)Nc3cc(Cl)ccc31)N2CC1CC1` [Ib-177], 53 nM; that for `O=C(O)c1ccc2nc3n(c2c1)C[C@H]1[C@@H]3[C@H](c2cccc(Cl)c2F)[C@]2(C(=O)Nc3cc(Cl)ccc32)N1CC1CC1` [Ib-178], 4 nM. `O=C(O)c1ccc2nc3n(c2c1)C[C@H]1[C@@H]3[C@H](c2cccc(Cl)c2F)[C@]2(C(=O)Nc3cc(Cl)ccc32)N1CC1CC1` [Ib-179] showed an IC50 of 2 nM. This IC50 is about 2-fold lower than that of the compound before. The same measure for `O=C(O)c1ccc2nc3n(c2c1)C[C@@H]1[C@H]3[C@@H](c2cccc(Cl)c2F)[C@@]2(C(=O)Nc3cc(Cl)ccc32)N1CC1CC1` [Ib-180]: 83 nM; for `COCc1cccc(CN2[C@H]3Cn4c(nc5cc(C(=O)O)ccc54)[C@H]3[C@H](c3cccc(Cl)c3F)[C@]23C(=O)Nc2cc(Cl)ccc23)c1` [Ib-183]: 3 nM; for `COCc1cccc(CN2[C@H]3Cn4c(nc5cc(C(=O)O)ccc54)[C@H]3[C@H](c3cccc(Cl)c3F)[C@]23C(=O)Nc2cc(Cl)ccc23)c1` [Ib-184]: 2 nM. `COCc1cccc(CN2[C@@H]3Cn4c(nc5cc(C(=O)O)ccc54)[C@@H]3[C@@H](c3cccc(Cl)c3F)[C@@]23C(=O)Nc2cc(Cl)ccc23)c1` [Ib-185]: inhibition was half-maximal at 14 nM (IC50). The compound `COc1cccc(CCN2[C@H]3Cn4c(nc5cc(C(=O)O)ccc54)[C@H]3[C@H](c3cccc(Cl)c3F)[C@]23C(=O)Nc2cc(Cl)ccc23)c1` [Ib-186] registered an IC50 of 4 nM.

As to `Cc1cc2c(cc1C(=O)O)nc1n2C[C@H]2[C@@H]1[C@H](c1cccc(Cl)c1F)[C@]1(C(=O)Nc3cc(Cl)ccc31)N2CC1CC1` [Ib-188], the IC50 was found to be 3 nM. The result for `Cc1c(C(=O)O)ccc2c1nc1n2C[C@H]2[C@@H]1[C@H](c1cccc(Cl)c1F)[C@]1(C(=O)Nc3cc(Cl)ccc31)N2CC1CC1` [Ib-189] reads 3 nM; that for `Cc1c(C(=O)O)ccc2c1nc1n2C[C@H]2[C@@H]1[C@H](c1cccc(Cl)c1F)[C@]1(C(=O)Nc3cc(Cl)ccc31)N2CC1CC1` [Ib-190], 2 nM; that for `CCN1[C@H]2Cn3c(nc4cc(C(=O)O)c(C)cc43)[C@H]2[C@H](c2cccc(Cl)c2F)[C@]12C(=O)Nc1cc(Cl)ccc12` [Ib-191], 6 nM.

Regarding `O=C(O)c1ccc2c(nc3n2C[C@H]2[C@@H]3[C@H](c3cccc(Cl)c3F)[C@]3(C(=O)Nc4cc(Cl)ccc43)N2CC2CC2)c1C(F)(F)F` [Ib-193], 3 nM corresponded to half-maximal inhibition (IC50). The same measure for `O=C(O)c1cc2nc3n(c2cc1C(F)(F)F)C[C@H]1[C@@H]3[C@H](c2cccc(Cl)c2F)[C@]2(C(=O)Nc3cc(Cl)ccc32)N1CC1CC1` [Ib-195]: 6 nM.

For orientation: IC50 means the point on the concentration scale where inhibition reaches its midpoint. The low end stands for inhibition by little substance, the high end for a need for much substance.

These data come from patent publication US10717742B2, “Spiro[3H-indole-3,2′-pyrrolidin]-2(1H)-one compounds and derivatives as MDM2-P53 inhibitors” (Boehringer Ingelheim International GmbH, priority 2015, dated 2020).
